The values that follow come from PubChem BioAssay AID1117319 (Southern Research Institute, 2015).

For orientation: IC50 means the concentration that inhibits the measured activity by half.

Records with an inconclusive call do not appear.

The test addresses Virion infectivity factor (Human immunodeficiency virus type 1 group M subtype B (isolate BH10)) + Virion infectivity factor (Human immunodeficiency virus type 1 group M subtype B (isolate BRU/LAI)) + Virion infectivity factor (Human immunodeficiency virus type 1 group M subtype B (isolate PCV12)) + Virion infectivity factor (Human immunodeficiency virus type 1 group M subtype B (isolate HXB2)) + DNA dC->dU-editing enzyme APOBEC-3G (Homo sapiens) (UniProt P69720+P69721+P69722+P69723+Q9HC16). The experiment in a line: inhibitors of Vif binding to APOBEC3G peptide, primary screen, biochemical, TR-FRET, GST-Vif 1-94, biotin-A3G peptide, dose response retest (AID 1117319;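 note: Vif residues 1-94 fused to GST binding biotinylated APOBEC3G peptide 110-148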). (Time-resolved FRET reads energy transfer from a long-lived donor to a nearby acceptor.)
`O=C1C(Cl)=C(Oc2ccccc2)C(=O)c2ccccc21`: the concentration for half-maximal inhibition (IC50) was 23.6 µM.
Under `CCN(CC)C(=O)c1ccc2c(c1)C1C(Cl)C(Sc3ccccc3[N+](=O)[O-])CC1C(C(=O)O)N2` (centres undefined) stands 13 µM.
In the case of `COC/C=C/C1=CC2=CC(=O)C(C)(OC(=O)c3ccco3)C(=O)C2=CO1` (centres undefined), the IC50 is 1.52 µM.
Under `COc1ccc(NC(=O)c2cc(-c3ccco3)nc3ccccc23)cc1S(=O)(=O)N1CCOCC1` stands 2.38 µM; under `O=C(N/N=C/c1cn(Cc2cccc(F)c2)c2ccccc12)c1cc(O)cc(O)c1`, 3.48 µM; under `CS(=O)(=O)N(CC(=O)Nc1ccc2c(c1)OCO2)Cc1ccccc1`, 94.7 µM.
Under `O=C1C=CC(=O)c2c(O)c(CO)c(CO)c(O)c21` stands 0.47 µM.
Under `COc1ccc(OC)c(Nc2nc(-c3ccc(O)c(O)c3)cs2)c1` stands 4.19 µM.
For the compound `O=C1C=C(c2c(O)ccc3ccccc23)c2ccccc2C1=O`, the IC50 was 2.54 µM.
Consider `COc1ccc(NC(=O)/C(C#N)=C\c2ccc(Br)o2)cc1`, for which the IC50 was 6.29 µM.
Under `CCN1CCN(C2=NC(=O)/C(=C/c3ccc(C)o3)S2)CC1` stands 3.48 µM.
Turning to `CC(=O)Nc1ccc(S(=O)(=O)Nc2nc3ccccc3nc2Nc2ccc(C(=O)O)c(O)c2)cc1`, the half-inhibitory concentration (IC50) is 17.4 µM.
Under `Cn1nnnc1SCC(=O)NCc1ccco1` stands 42.8 µM; under `O=C(NCCN1CCN(c2ccccc2)CC1)C1CCN(S(=O)(=O)c2cccc3nonc23)CC1`, 43 µM; under `CCCC(=O)N(CCc1ccc(OC)cc1)Cc1nc2ccccc2c(=O)[nH]1`, 14.4 µM.
With `CCOC(=O)C(=O)Cc1cccnn1`, the concentration for half-maximal inhibition (IC50) is 0.65 µM.
For `CN1C(=O)/C(=C/C=C/c2ccco2)C(=O)NC1=S`, the concentration for half-maximal inhibition (IC50) is 13.4 µM.
For the compound `CC(/C=C/c1ccco1)=N\NC(=O)c1cccnc1`, the IC50 was 20.3 µM.
In the case of `CCCN1C(=O)S/C(=C\c2ccc(N3CCOCC3)cc2C)C1=O`, the IC50 was 23.4 µM.
Regarding `O=[N+]([O-])c1ccc(N/N=C/c2ccc(O)c(O)c2O)c(S(=O)(=O)N2CCOCC2)c1`, the IC50 is 1.14 µM.
Under `CCCSC1=N/C(=C\c2ccc([N+](=O)[O-])o2)C(=O)S1` stands 12.9 µM; under `CC(C)Nc1ccc(Nc2ccccc2)cc1`, 9.18 µM; under `COC1=CC(=O)C(C2CC(=O)c3c(O)cc(O)cc3O2)=CC1=O` (centres undefined), 15 µM.
In the case of `CCOc1ccccc1NC(=O)CCS(=O)(=O)c1ccc(Br)cc1`, the IC50 is 7.52 µM.
Take `CNc1ccc(Br)cc(C(=O)/C=C/c2ccc(OC)cc2)c1=O`: the half-inhibitory concentration (IC50) is 3.53 µM.
Under `Cc1cccc(OCCn2cccc2/C=C2/C(=O)NC(=O)N(Cc3ccco3)C2=O)c1` stands 4.18 µM.
As to `O=[N+]([O-])c1cc(CN2CCCC2)c2cccnc2c1O`, the half-inhibitory concentration (IC50) was 2.48 µM.
Under `COC(=O)C1=C(O)/C(=C\c2ccc(CNC(=O)C(=O)Nc3ccc(C)cc3)o2)N=C1C` stands 24.1 µM.
With `CCOc1ccccc1C(O)C1=CC(=O)c2ccccc2C1=O` (centres undefined), the half-inhibitory concentration (IC50) is 7.61 µM.
Under `O=C(CSc1nnnn1-c1ccccc1)Nc1ncc2c(n1)CC(c1ccco1)CC2=O` (centres undefined) stands 12.6 µM.
To `Cc1cccc(NC(=S)NC(=O)/C=C/c2ccco2)c1` belongs 17.5 µM.
As for `Cc1cc(-c2cc(-c3ccc(Cl)cc3)nc(N)c2C#N)co1`, the IC50 is 12.4 µM.
For `O=C1CC(SC(=S)C2CCCC2=O)C(=O)N1` (centres undefined), the half-maximal inhibitory concentration (IC50) is 27.8 µM.
As to `Cc1cc(O)c(Oc2cc(C)cc(O)c2O)c(O)c1`, the IC50 is 13.8 µM.
To `CSc1ccccc1NC(=O)c1noc2c1CCC2` belongs 18.4 µM; to `Oc1ccc2c(c1)C1CCCC1(N1CCOCC1)O2` (centres undefined), 4.31 µM; to `O=C1NC(=O)N(c2ccccc2)C(=O)/C1=C\C=C\c1ccccc1`, 42 µM.
Take `CS(=O)(=O)c1ccc(C(=O)Nc2nc(-c3ccco3)c(-c3ccco3)s2)cc1`: the IC50 was 22.1 µM.
In the case of `Cc1cc(C)n(CC(=O)NNC(=O)c2ccc(NC(=O)CC#N)cc2)n1`, the IC50 was 91.3 µM.
With `Cc1ccc(-c2nnn(CC(=O)N(c3ccc(F)cc3)C(C(=O)NC3CCCC3)c3ccco3)n2)o1` (centres undefined), the IC50 was 85.8 µM.
As for `Cc1cc(C(=O)COC(=O)c2cc(O)c3ccccc3c2O)c(C)n1CC1CCCO1` (centres undefined), the IC50 was 6.92 µM.
Under `COc1ccc2nc(NNC(=O)c3cc(=O)c4ccccc4o3)sc2c1` stands 26.8 µM; under `CCOc1cc(N2CCOCC2)c(OCC)cc1NS(=O)(=O)c1ccc(Cl)s1`, 3.22 µM; under `COc1ccc(S(=O)(=O)N(C(C)=O)c2ccc3oc(=O)sc3c2)cc1`, 88.4 µM.
To `COc1ccc(N=C2S/C(=C\c3ccc(C)o3)C(=O)N2CC(C)C)cc1` belongs 39.7 µM; to `CCOC(=O)c1cnn2c(N)c(C#N)nnc12`, 21.4 µM.
Under `COC(=O)Cn1ncn2c(cc3oc(C)cc32)c1=O` stands 71.6 µM; under `CNC[C@H](O)c1ccc(O)c(O)c1`, 1.16 µM; under `O=C(N/N=C/C=C/c1ccco1)c1ccncc1`, 2.36 µM.
`Nc1ccc(S(=O)(=O)c2cc(O)c3ccccc3c2O)cc1`: the IC50 was 24.8 µM.
As to `O=C1CCC/C1=C/Nc1ccc2c(c1)OCO2`, the IC50 was 2.09 µM.
To `COC(=O)CCCC(=O)Nc1c(F)c(F)c(F)c(F)c1F` belongs 24.3 µM; to `N/C(=N\N=C/c1ccc(-c2ccc(O)c(C(=O)O)c2)o1)N[N+](=O)[O-]`, 15.2 µM.
Under `O=S(=O)(O)c1cccc2c(N=Nc3ccc(O)c4ncccc34)cccc12` stands 13.6 µM.
Under `O=C1/C(=C/c2ccco2)Oc2c1ccc(O)c2CN1CCCCC1` stands 1.36 µM; under `Cn1c(N)c(C(=O)COC(=O)C2CCCCC2)c(=O)n(C)c1=O`, 92.9 µM.
As for `Cc1ccc(/C=C/C(=O)Nc2ccc([N+](=O)[O-])c(NC(=O)/C=C/c3ccc(C)o3)c2)o1`, the IC50 was 1.49 µM.
In the case of `CCN(CC)Cc1cc(O)c(CN(CC)CC)cc1O`, the IC50 is 10.8 µM.
To `COc1cccc(C2C(C#N)=C(N)OC3=C2C(=O)CC(c2ccco2)C3)c1OCc1ccc(F)cc1` (centres undefined) belongs 7.82 µM; to `CCN(CC)c1ccc(NC2CC(=O)N(CCc3ccc(OC)cc3)C2=O)cc1` (centres undefined), 6.97 µM.
Under `COCOC1CCC2C3CCC4=CC(=O)CCC4=C3C=CC12C` (centres undefined) stands 23.2 µM.
Turning to `CCCn1cnc2cc(NCc3ccccn3)ccc21`, the concentration for half-maximal inhibition (IC50) is 28.6 µM.
To `CC(C)CCNC(=O)c1ccc2c(SCC(=O)O)c3c(nc2c1)CCC3` belongs 59.8 µM.
To `COc1ccc(/C=N\NC(=O)c2cc(O)c(O)c(O)c2)cc1CN1CCN(c2ccc(F)cc2)CC1` belongs less than 2.47 µM.
In the case of `CN(CC(=O)Nc1cccc(F)c1)C(=O)c1cccc(-n2cccc2)c1`, the half-maximal inhibitory concentration (IC50) was 8.08 µM.
Under `CC(C(=O)O)N1C(=O)/C(=C/C=C/c2ccco2)SC1=S` (centres undefined) stands 0.39 µM.
To `Cc1ccc(C)n1-c1ccc(C(=O)O)cc1` belongs 5.12 µM; to `O=C(NC1CCC(C(=O)O)CC1)OCc1ccccc1` (centres undefined), 12.4 µM; to `NC(=O)COC(=O)c1ccc(Oc2ccccc2)cc1`, 98.9 µM.
`c1coc(-c2nc(-c3ccco3)c(-c3ccco3)nc2-c2ccco2)c1`: the half-maximal inhibitory concentration (IC50) is 0.35 µM.
`CO[C@H]1C=CO[C@@]2(C)Oc3c(C)c(O)c4c(O)c(c(C=NN5CCN(C)CC5)c(O)c4c3C2=O)NC(=O)C(C)=CC=C[C@H](C)[C@H](O)[C@@H](C)[C@@H](O)[C@@H](C)[C@H](OC(C)=O)[C@@H]1C`: the IC50 is 7.75 µM.
Under `O=C1/C(=C\c2ccco2)CCC/C1=C\c1ccco1` stands 3.05 µM; under `CC(=O)OC1COC(n2ccc3ccccc32)C(OC(C)=O)C1OC(C)=O` (centres undefined), 22.6 µM; under `CCn1c(C)nc2cc(C(=O)N/N=C/c3ccc(O)c(O)c3O)ccc21`, 0.52 µM.
Take `O=C(/C=C/c1ccc(O)c(O)c1)c1ccc(S(=O)(=O)N2CCCCCC2)cc1`: the IC50 was 2.29 µM.
Regarding `NC(=O)c1c(NC(=O)Cc2cccs2)sc2c1CCC2`, the IC50 is 49.5 µM.
Under `O=C(NCCc1ccccc1)c1ccc2nc(-c3ccco3)c(-c3ccco3)nc2c1` stands 3.01 µM; under `CCc1ccc(NC(=O)CCNS(=O)(=O)c2cccc3nonc23)cc1`, 53 µM.
To `CC1(C)CCCN(C(=O)c2coc(=O)c(Br)c2)C1` belongs 3.54 µM.
To `O=C(O)C[C@@H]1C(=O)O[C@@H]2C(COC(=O)c3cc(O)c(O)c(O)c3)O[C@@H](OC(=O)c3cc(O)c(O)c(O)c3)[C@@H](OC(=O)c3cc(O)c(O)c4c3[C@H]1[C@H](O)C(=O)O4)[C@H]2OC(=O)c1cc(O)c(O)c(O)c1` (some centres undefined) belongs less than 0.195 µM; to `O=C1NC(=O)C(=CN2CCc3ccccc32)C(=O)N1`, 91.3 µM; to `O=C(O)c1cc(N2N=C(C(F)(F)F)/C(=C/C=C/c3ccco3)C2=O)ccc1Cl`, 1.04 µM.
Take `COc1ccc(-c2cc(-c3ccco3)[nH]c(=O)c2C#N)cc1`: the IC50 was 25.3 µM.
To `N#Cc1c(NC(=O)CSc2ncnc3sccc23)oc(-c2ccco2)c1-c1ccco1` belongs 0.95 µM.
As to `COc1ccc2[nH]c3c4c(ccc3c2c1)C(=O)C=CC4=O`, the 50% inhibitory concentration (IC50) is 1.42 µM.
To `O=C(O)CC(C(=O)O)N1C(=O)/C(=C/C=C/c2ccco2)SC1=S` (centres undefined) belongs 0.96 µM; to `O=C(COC(=O)c1ccc(NS(=O)(=O)c2cccs2)cc1)NCc1ccco1`, 5.88 µM.
As for `Clc1ccc(OCc2nn3c(-c4ccco4)nnc3s2)c(Cl)c1`, the IC50 was 63.1 µM.
Under `COc1ccc(NC(=O)N2c3ccc(OC)cc3C(C)=CC2(C)C)cc1` stands 3.27 µM; under `CCOC(=O)C1=C(N)n2c(s/c(=C\c3ccco3)c2=O)=C(C(=O)OCC)C1c1ccco1` (centres undefined), 1.41 µM; under `COc1cc(/C=C/C=C2/CC/C(=C/C=C/c3ccc(O)c(OC)c3)C2=O)ccc1O`, 4.03 µM.
Under `O=S(=O)(Nc1nccs1)c1ccc(Nc2nnc(-c3ccccc3)c3ccccc23)cc1` stands 84.3 µM; under `CCOC(=O)c1cc([N+](=O)[O-])cc([N+](=O)[O-])c1Sc1ncnc2nc[nH]c12`, 69.6 µM.
Under `O=C(NNC(=O)c1ccccc1O)c1ccc(-c2ccc([N+](=O)[O-])cc2)o1` stands 32.3 µM.
